Measurements published in patent EP4265127A1, “WATER-SOLUBLE EMULSION COMPOSITION CONTAINING NATURAL POLYPHENOL COMPOUND” (Yun, Kwan Sik, priority 2020, dated 2022).

Experiment: Water solubility confirmation (organic material content quantified by Karl Fisher method)
Format: physicochemical
Protocol: According to the composition shown in Tables 38 to 61, the water-soluble antioxidant emulsion was added to the natural polyphenol compound emulsion, and then mixing and dispersing were performed at 500 rpm or less while checking the properties of the emulsion to prepare an natural polyphenol compound-containing water-soluble emulsion composition containing a water-soluble antioxidant emulsion. […] After 1 hour of centrifugation and filtering, an organic material content was quantified by measuring a water content using a Karl Fisher method.

Water solubility | Compound
0.00% | COc1cc(/C=C/C(=O)CC(=O)/C=C/c2ccc(O)c(OC)c2)ccc1O [Generic Powdered Curcumin]
0.02% | O=c1cc(-c2ccc(O)c(O)c2)oc2cc(O)cc(O)c12 [Generic Powdered Luteolin]
0.00% | Oc1ccc(/C=C/c2cc(O)cc(O)c2)cc1 [Generic Powdered Resveratrol]
0.01% | O=c1c(O)c(-c2ccc(O)cc2)oc2cc(O)cc(O)c12 [Generic Powdered kaempferol]
0.00% | COc1ccc([C@@H]2CC(=O)c3c(O)cc(O[C@@H]4O[C@H](CO[C@@H]5O[C@@H](C)[C@H](O)[C@@H](O)[C@H]5O)[C@@H](O)[C@H](O)[C@H]4O)cc3O2)cc1O [Generic powdered Hesperidin]
0.00% | O=c1c(O)c(-c2ccc(O)c(O)c2)oc2cc(O)cc(O)c12 [Generic powdered Quercetin]

Compound | Water solubility
O=c1cc(-c2ccccc2)oc2cc(O)c(O)c(O)c12 [Generic Powdered Baicalein] | 0.00%
O=C1C[C@@H](c2ccc(O)cc2)Oc2cc(O)cc(O)c21 [Generic Powdered Naringenin] | 0.04%
